Test results from patent US20140323418A1, “SELECTIVE KINASE INHIBITORS” (PORTOLA PHARMACEUTICALS, INC., priority 2011, published 2014).

Biological target: T1, full length active recombinant SYK enzyme (Homo sapiens, UniProt P43405)
T1 construct: full length active recombinant SYK enzyme (Millipore, Calif.); purchased Millipore
Experiment: Inhibition of Syk tyrosine phosphorylation activity (LANCE TR-FRET kinase assay)
Type: biochemical
Conditions: 1 nM SYK, 550 nM substrate, 100 μM ATP, 1 hour room temperature

| IC50 | SMILES |
| --- | --- |
| 100 to 1000 nM | NC(=O)c1cnc(NC2CCCc3cccnc32)nc1Nc1cccc(-n2nccn2)c1 (racemic) [Example 18, 4-(3-(2H-1,2,3-triazol-2-yl)phenylamino)-2-(5,6,7,8-tetrahydroquinolin-8-ylamino)pyrimidine-5-carboxamide] |
| 1 to 10 nM | CCC(Nc1ncc(C(N)=O)c(Nc2cccc(C)c2)n1)C1(N)CC1 (racemic) [Example 125, (±)-2-(1-(1-aminocyclopropyl)propylamino)-4-(m-tolylamino)pyrimidine-5-carboxamide] |
| 100 to 1000 nM | NC(=O)c1cnc(N[C@@H]2CCCC(=O)[C@@H]2N)nc1Nc1cccc(-n2nccn2)c1 (racemic) [Example 165] |
| 10 to 100 nM | NC(=O)c1cnc(N[C@@H]2CCC[C@H](F)[C@@H]2N)nc1Nc1cccc(-n2nccn2)c1 (racemic) [Example 174] |
| 10 to 100 nM | NC(=O)c1cnc(N[C@@H]2[C@H](F)CCC[C@@H]2N)nc1Nc1cccc(-n2nccn2)c1 (racemic) [Example 175, (±)-4-(3-(2H-1,2,3-triazol-1-yl)phenylamino)-2-((1S,2S,6R)-2-amino-6-fluorocyclohexylamino)pyrimidine-5-carboxamide] |
| 1 to 10 nM | Cc1cccc(Nc2nc(N[C@@H]3CC[C@@H](C(=O)O)C[C@@H]3N)ncc2C(N)=O)c1 (racemic) [Example 187, (1R,3S,4R)-3-amino-4-(5-carbamoyl-4-(m-tolylamino)pyrimidin-2-ylamino)cyclohexanecarboxylic acid] |
| 10 to 100 nM | CCOC(=O)[C@@H]1CC[C@@H](Nc2ncc(C(N)=O)c(Nc3cccc(C)c3)n2)[C@@H](N)C1 (racemic) [Example 188, (1R,3S,4R)-ethyl 3-amino-4-(5-carbamoyl-4-(m-tolylamino)pyrimidin-2-ylamino)cyclohexanecarboxylate] |
| 1 to 10 nM | CNC(=O)[C@@H]1CC[C@@H](Nc2ncc(C(N)=O)c(Nc3cccc(C)c3)n2)[C@@H](N)C1 (racemic) [Example 189, 2-((1R,2S,4R)-2-amino-4-(methylcarbamoyl)cyclohexylamino)-4-(m-tolylamino)pyrimidine-5-carboxamide] |
| 1 to 10 nM | Cc1cccc(Nc2nc(N[C@@H]3CC[C@@H](C(=O)N(C)C)C[C@@H]3N)ncc2C(N)=O)c1 (racemic) [Example 190, 2-((1R,2S,4R)-2-amino-4-(dimethylcarbamoyl)cyclohexylamino)-4-(m-tolylamino)pyrimidine-5-carboxamide] |
| 10 to 100 nM | Cc1cccc(Nc2nc(N[C@@H]3CC[C@@H](C(=O)N4CC(F)(F)C4)C[C@@H]3N)ncc2C(N)=O)c1 (racemic) [Example 192, 2-((1R,2S,4R)-2-amino-4-(3,3-difluoroazetidine-1-carbonyl)cyclohexylamino)-4-(m-tolylamino)pyrimidine-5-carboxamide] |
| 10 to 100 nM | Cc1cccc(Nc2nc(N[C@@H]3CC[C@@H](C(=O)N4CCCC4)C[C@@H]3N)ncc2C(N)=O)c1 (racemic) [Example 193, 2-((1R,2S,4R)-2-amino-4-(pyrrolidine-1-carbonyl)cyclohexylamino)-4-(m-tolylamino)pyrimidine-5-carboxamide] |
| 10 to 100 nM | NC(=O)c1cnc(N[C@@H]2CCC[C@@H](F)[C@@H]2N)nc1Nc1cccc(-n2nccn2)c1 (racemic) [Example 242, (±)-4-(3-(2H-1,2,3-triazol-2-yl)phenylamino)-2-((1R,2R,3R)-2-amino-3-fluorocyclohexylamino)pyrimidine-5-carboxamide] |
| 100 to 1000 nM | Cc1cccc(Nc2nc(N[C@@H]3C[C@@H](C(N)=O)CC[C@@H]3N)ncc2C(N)=O)c1 (racemic) [Example 243, 2-((1R,2S,5S)-2-amino-5-carbamoylcyclohexylamino)-4-(m-tolylamino)pyrimidine-5-carboxamide] |
| 100 to 1000 nM | NC(=O)c1cnc(N[C@@H]2CCCC[C@@H]2CO)nc1Nc1cccc(-n2nccn2)c1 (racemic) [Example 256, 4-((3-(2H-1,2,3-triazol-2-yl)phenyl)amino)-2-(((1R,2S)-2-(hydroxymethyl)cyclohexyl)amino)pyrimidine-5-carboxamide] |
| 10 to 100 nM | Cc1cccc(Nc2ncc(C(N)=O)c(NC3CCC(N)CC3)n2)c1 (stereo in doubt) [Example 246, 4-(trans-4-aminocyclohexylamino)-2-(m-tolylamino)pyrimidine-5-carboxamide] |
| 10 to 100 nM | COc1cccc(Nc2ncc(C(N)=O)c(NC3CCC(N)CC3)n2)c1 (stereo in doubt) [Example 247, 4-(trans-4-aminocyclohexylamino)-2-(3-methoxyphenylamino)pyrimidine-5-carboxamide] |
| 100 to 1000 nM | COc1ccc(Nc2ncc(C(N)=O)c(NC3CCC(N)CC3)n2)cn1 (stereo in doubt) [Example 248, 4-(trans-4-aminocyclohexylamino)-2-(6-methoxypyridin-3-ylamino)pyrimidine-5-carboxamide] |
| 100 to 1000 nM | CN(C)c1ncc(C(N)=O)c(Nc2cccc(-n3nccn3)c2)n1 [Example 3, 4-(3-(2H-1,2,3-triazol-2-yl)phenylamino)-2-(dimethylamino)pyrimidine-5-carboxamide] |

| IC50 | SMILES |
| --- | --- |
| 100 to 1000 nM | CCO[C@@H]1CCCC[C@H]1Nc1ncc(C(N)=O)c(Nc2cccc(-n3nccn3)c2)n1 [Example 6] |
| 100 to 1000 nM | CCO[C@H]1CCCC[C@H]1Nc1ncc(C(N)=O)c(Nc2cccc(-n3nccn3)c2)n1 [Example 7, 4-(3-(2H-1,2,3-triazol-2-yl)phenylamino)-2-((1R,2S)-2-ethoxycyclohexylamino)pyrimidine-5-carboxamide] |
| 100 to 1000 nM | [N-]=[N+]=N[C@H]1CCCC[C@H]1Nc1ncc(C(N)=O)c(Nc2cccc(-n3nccn3)c2)n1 [Example 8, 4-(3-(2H-1,2,3-triazol-2-yl)phenylamino)-2-((1R,2S)-2-azidocyclohexylamino)pyrimidine-5-carboxamide] |
| 100 to 1000 nM | NC(=O)c1cnc(N[C@@H]2CCCC[C@@H]2n2ccnn2)nc1Nc1cccc(-n2nccn2)c1 [Example 9, 2-((1R,2S)-2-(1H-1,2,3-triazol-1-yl)cyclohexylamino)-4-(3-(2H-1,2,3-triazol-2-yl)phenylamino)pyrimidine-5-carboxamide] |
| 100 to 1000 nM | NC(=O)c1cnc(N[C@@H]2CCCC[C@@H]2NC=O)nc1Nc1cccc(-n2nccn2)c1 [Example 10, 4-(3-(2H-1,2,3-triazol-2-yl)phenylamino)-2-((1R,2S)-2-formamidocyclohexylamino)pyrimidine-5-carboxamide] |
| 100 to 1000 nM | N#CCN[C@H]1CCCC[C@H]1Nc1ncc(C(N)=O)c(Nc2cccc(-n3nccn3)c2)n1 [Example 11, 4-(3-(2H-1,2,3-triazol-2-yl)phenylamino)-2-((1R,2S)-2-(cyanomethylamino)cyclohexylamino)pyrimidine-5-carboxamide] |
| 100 to 1000 nM | NC(=O)c1cnc(N[C@@H]2CCCC[C@@H]2NCCO)nc1Nc1cccc(-n2nccn2)c1 [Example 12, 4-(3-(2H-1,2,3-triazol-2-yl)phenylamino)-2-((1R,2S)-2-(2-hydroxyethylamino)cyclohexylamino)pyrimidine-5-carboxamide] |
| 100 to 1000 nM | NC(=O)c1cnc(N[C@@H]2CCCC(F)(F)[C@@H]2N)nc1Nc1cccc(-n2nccn2)c1 [Example 13] |
| 100 to 1000 nM | CC(NC1CCCC[C@H]1Nc1ncc(C(N)=O)c(Nc2cccc(-n3nccn3)c2)n1)N[C@H]1CCCC[C@H]1Nc1ncc(C(N)=O)c(Nc2cccc(-n3nccn3)c2)n1 (stereo partly drawn) [Example 15, 2,2′-(1R,1′R,2S,2′S)-2,2′-(ethane-1,1-diylbis(azanediyl))bis(cyclohexane-2,1-diyl)bis(azanediyl)bis(4-(3-(2H-1,2,3-triazol-2-yl)phenylamino)pyrimidine-5-carboxamide)] |
| 100 to 1000 nM | NC(=O)c1cnc(N[C@H]2CCCC(F)(F)[C@H]2N)nc1Nc1cccc(-n2nccn2)c1 [Example 19] |
| 10 to 100 nM | NC(=O)c1cnc(N[C@@H]2CCCC[C@@H]2N)nc1Nc1ccc(Br)c(-n2nccn2)c1 [Example 20, 2-((1R,2S)-2-aminocyclohexylamino)-4-(4-bromo-3-(2H-1,2,3-triazol-2-yl)phenylamino)pyrimidine-5-carboxamide] |
| 10 to 100 nM | NC(=O)c1cnc(N[C@@H]2CCCC[C@@H]2N)nc1Nc1cc(Br)cc(-n2nccn2)c1 [Example 21, 2-((1R,2S)-2-aminocyclohexylamino)-4-(3-bromo-5-(2H-1,2,3-triazol-2-yl)phenylamino)pyrimidine-5-carboxamide] |
| 1 to 10 nM | NC(=O)c1cnc(N[C@@H]2CCCC[C@@H]2N)nc1Nc1ccc(Cl)c(-n2nccn2)c1 [Example 22, 2-((1R,2S)-2-aminocyclohexylamino)-4-(4-chloro-3-(2H-1,2,3-triazol-2-yl)phenylamino)pyrimidine-5-carboxamide] |
| 10 to 100 nM | NC(=O)c1cnc(N[C@@H]2CCCC[C@@H]2N)nc1Nc1cc(-n2nccn2)c(Cl)cc1Cl [Example 24, 2-((1R,2S)-2-aminocyclohexylamino)-4-(2,4-dichloro-5-(2H-1,2,3-triazol-2-yl)phenylamino)pyrimidine-5-carboxamide] |
| 100 to 1000 nM | NC(=O)c1cnc(N[C@@H]2CCCC(F)(F)[C@@H]2N)nc1Nc1cccc(-c2ncccn2)c1 [Example 26, 2-(((1R,2R)-2-amino-3,3-difluorocyclohexyl)amino)-4-((3-(pyrimidin-2-yl)phenyl)amino)pyrimidine-5-carboxamide] |
| 100 to 1000 nM | NC(=O)c1cnc(N[C@@H]2CCCC(F)(F)[C@@H]2N)nc1Nc1ccccc1 [Example 27, 2-(((1R,2R)-2-amino-3,3-difluorocyclohexyl)amino)-4-(phenylamino)pyrimidine-5-carboxamide] |
| 10 to 100 nM | NC(=O)c1cnc(N[C@@H]2CCCC(F)(F)[C@@H]2N)nc1Nc1cccc(Cl)c1 [Example 28, 2-(((1R,2R)-2-amino-3,3-difluorocyclohexyl)amino)-4-((3-chlorophenyl)amino)pyrimidine-5-carboxamide] |
